“Also recorded” adds a separate entry of the source.
How the values were obtained:
[1] = tested on: MV-4-11 xenograft; assay: MV-4-11 xenograft mouse model; assay type: in vivo, BALB/c nude mice; settings: 28 days
Experimental: Based on the excellent enzymatic and anti-proliferative activities of compound 20 in vitro, we then evaluated antitumor activities in vivo in an MV-4-11 xenograft mouse model.
Male BALB/c nude mice (6–8 weeks old) were purchased from Hangzhou Medical College. All animals were housed in a specific pathogen-free facility. MV-4-11 cells (5 × 10^6) suspended in 0.2 mL of PBS were inoculated subcutaneously on the right flank of each BALB/c nude mouse. Mice were divided randomly (5 mice for each group) into two treatment groups and a control group when the size of the tumors reached 150 mm^3. […] The tumor volume and body weight were measured every 2 days. The tumor volume was determined with Vernier calipers and calculated as follows: tumor volume = a × b^2/2, where a and b stand for the longest and shortest diameters measured by the vernier caliper, respectively. All animal experiments have been approved by Pharmaceutical Experiment Center of China Pharmaceutical University.
(A) The resulting tumors excised from the animals after treatment. […] (C) The nude mouse body weight was measured every 2 days. (D) The tumor volumes of the nude mice were measured and calculated once every 2 days.

[2] = tested on: sDMA; assay: Western blot of sDMA in MV-4-11 xenograft tumors; assay type: in vivo, BALB/c nude mice; settings: 10 mg/kg, 28 days
Experimental: Subsequently, we investigated the effects of compound 20 on the expression of the PRMT5 substrate sDMA in vivo (Figure 8). Similarly, the expression of sDMA was decreased after the treatment of compound 20, which was in line with its antitumor activity in vivo.
Tumor tissue was grinded by a cryo-grinder before being lysed with an RIPA buffer, protease inhibitors (PMSF, MCE), and phosphatase cocktails II (MCE). The mixture was centrifuged for 15 min (12,000 rpm). The following steps were the same as with cells.
(A) Western blot analysis of sDMA as indicated in MV-4-11 xenograft tumors treated with the indicated compounds for 28 days. (B) The relative strength of sDMA signal on the Western blots was measured by densitometry. The data are shown as the mean ± SD of three independent experiments. * p < 0.05 vs. control.

[3] = tested on: AML-12 hepatocytes; assay: Toxicity on normal AML-12 hepatocytes; assay type: cell-based
From the text: (§1) MV-4-11 and MDA-MB-468 cell lines were used to evaluate the anti-proliferative activities of the selected target compounds (CellTiter-Glo assay), and AML-12 hepatocytes were selected to evaluate the toxicity of the compounds.
MV-4-11 and MDA-MB-468 cell line were derived from Cell Resources Center of Shanghai Academy of life sciences (Shanghai, China). AML-12 cell line was brough from Nanjing Lixing Biotechnology Co. Ltd. (Nanjing, China). MDA-MB-468 cell line was maintained in Dulbecco’s Modified Eagle Medium (DMEM, KeyGEN Bio) that contained 10% FBS (Biochanel, China), MV-4-11 cell line was maintained in Iscove’s Modified Dulbecco Medium containing; 10% FBS (Biochannel, China), AML-12 cell line was maintained in DMEM/F-12 (1:1) (KeyGEN, China; 1% ITS Liquid Media Supplement (Sigma, America), dexamethasone 40 ng/mL (Sigma, USA) and 10% FBS (Biochannel, China). All cells were grown in a humidified incubator containing 5% carbon dioxide at 37 ℃. All compounds were dispersed in dimethyl sulfoxide (Sigma), the concentration of the reserve solution was 10 mmol/L and the solution was stored in a refrigerator at −20 ℃. SDMA (# 13222S), β- Tubulin (#2146S) and horseradish peroxidase (HRP)-linked secondary antibodies anti-rabbit or anti-mouse IgG were purchased from Cell Signaling Technology (CST), and the anti-PRMT5 (ab109451) antibody was purchased from ABCAM. […]

[4] = tested on: MDA-MB-468 cells; assay: Anti-proliferation CellTiter-Glo assay, MDA-MB-468; assay type: cell-based; settings: Homo sapiens
From the text: as §1
MV-4-11 and MDA-MB-468 cell line were derived from Cell Resources Center of Shanghai Academy of life sciences (Shanghai, China). AML-12 cell line was brough from Nanjing Lixing Biotechnology Co. Ltd. (Nanjing, China). MDA-MB-468 cell line was maintained in Dulbecco’s Modified Eagle Medium (DMEM, KeyGEN Bio) that contained 10% FBS (Biochanel, China), MV-4-11 cell line was maintained in Iscove’s Modified Dulbecco Medium containing; 10% FBS (Biochannel, China), AML-12 cell line was maintained in DMEM/F-12 (1:1) (KeyGEN, China; 1% ITS Liquid Media Supplement (Sigma, America), dexamethasone 40 ng/mL (Sigma, USA) and 10% FBS (Biochannel, China). All cells were grown in a humidified incubator containing 5% carbon dioxide at 37 ℃. All compounds were dispersed in dimethyl sulfoxide (Sigma), the concentration of the reserve solution was 10 mmol/L and the solution was stored in a refrigerator at −20 ℃. SDMA (# 13222S), β- Tubulin (#2146S) and horseradish peroxidase (HRP)-linked secondary antibodies anti-rabbit or anti-mouse IgG were purchased from Cell Signaling Technology (CST), and the anti-PRMT5 (ab109451) antibody was purchased from ABCAM.
The antiproliferative activities of compounds in vitro were measured by CellTiter-Glo (CTG) assay (Promega, America). In linear/log-phase growth, cultured MV-4-11 cells were split to with seeding density of 2 × 10^5 cells/mL in 1–20 mL of media, depending on the yield required at the end of the growth period. At the conclusion of each treatment period, cells were harvested by centrifugation (4 min, 1000 rpm), and cell pellets were rinsed twice with PBS before being research further processing. Afterwards, cells were plated in 96-well plates with a density of 500 cells/well in […] media. After six hours incubation, compounds treatment was performed. Half of the culture medium was moved and re-plated with fresh media with fresh compound after 6 days. On the 12th day, Cell Titer-Glo Luminescent Cell Viability assays (Promega, USA) were used to determine the viable cell number, and luminescence was recorded using the Envision Multilabel Plate Readers (PerkinElmer). The concentration dependence curves were determined at each time point using GraphPad Prism 8.0 software.

Q: With O=C(NC[C@H](O)CN1CCc2ccccc2C1)c1ccc2c(c1)c1c(n2CC2COC2)CCCC1 [Compound 20, (S)-N-(3-(3,4-dihydroisoquinolin-2(1H)-yl)-2-hydroxypropyl)-9-(oxetan-3-ylmethyl)-2,3,4,9-tetrahydro-1H-carbazole-6-carboxamide] as the molecule, how does the body weight ([1]; 10 mg/kg BID) read?
A: no significant weight fluctuations

Q: And the tolerability / mortality ([1]; 10 mg/kg BID)?
A: well-tolerated with no mortality

Q: What about the TGI ([1]; 10 mg/kg, twice daily (BID)) of the same molecule?
A: 47.6%

Q: What about the “expression of sDMA in vivo” value [2] of the same molecule?
A: decreased

Q: What about the “toxicity to normal AML-12 hepatocytes (in words)” value [3] of the same molecule?
A: almost no toxicity; also recorded: no significant cytotoxicity

Q: What about the inhibition at 10 µM ([3]; Mus musculus, AML12, read-out: AML-12 Inhibition Rate% @10 μM) of the same molecule?
A: -30.5 ± 9.4%

Q: And the inhibition at 20 µM ([3]; Mus musculus, AML12, read-out: AML-12 Inhibition Rate% @20 μM)?
A: -27 ± 1.2%

Q: And the GI50 [4]?
A: 9.9 ± 6.8 nM

Source: PMC9572541, “Design, Synthesis and Biological Evaluation of Novel and Potent Protein Arginine Methyltransferases 5 Inhibitors for Cancer Therapy” (Molecules, 2022)
